Test results reported in ChEMBL document CHEMBL1144234, “Novel design principle validated: glucopyranosylidene-spiro-oxathiazole as new nanomolar inhibitor of glycogen phosphorylase, potential antidiabetic agent” (Bioorg Med Chem Lett, 2008).

Biological target: T1, Glycogen phosphorylase, muscle form (Oryctolagus cuniculus, UniProt P00489)
T1 sequence (P00489 whole entry): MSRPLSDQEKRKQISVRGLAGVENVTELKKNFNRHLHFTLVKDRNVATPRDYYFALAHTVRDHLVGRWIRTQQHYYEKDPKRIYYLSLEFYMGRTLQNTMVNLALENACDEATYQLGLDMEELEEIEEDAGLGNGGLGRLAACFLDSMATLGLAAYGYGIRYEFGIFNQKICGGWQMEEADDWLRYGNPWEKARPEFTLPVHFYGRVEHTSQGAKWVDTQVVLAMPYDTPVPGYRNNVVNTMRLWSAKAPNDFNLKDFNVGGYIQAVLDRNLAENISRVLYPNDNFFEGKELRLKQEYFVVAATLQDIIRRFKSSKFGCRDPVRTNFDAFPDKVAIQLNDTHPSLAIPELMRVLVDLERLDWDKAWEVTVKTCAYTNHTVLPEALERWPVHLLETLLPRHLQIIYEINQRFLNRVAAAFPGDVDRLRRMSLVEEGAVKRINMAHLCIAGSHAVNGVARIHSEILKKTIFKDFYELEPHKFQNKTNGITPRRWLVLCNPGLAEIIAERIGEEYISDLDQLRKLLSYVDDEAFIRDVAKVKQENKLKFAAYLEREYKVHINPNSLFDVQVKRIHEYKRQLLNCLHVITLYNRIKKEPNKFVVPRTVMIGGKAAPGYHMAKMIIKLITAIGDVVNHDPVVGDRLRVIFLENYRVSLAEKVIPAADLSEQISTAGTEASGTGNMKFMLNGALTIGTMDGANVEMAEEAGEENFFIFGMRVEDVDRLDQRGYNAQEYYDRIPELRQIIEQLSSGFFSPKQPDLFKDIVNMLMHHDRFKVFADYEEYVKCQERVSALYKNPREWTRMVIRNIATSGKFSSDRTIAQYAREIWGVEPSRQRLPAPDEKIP
Description: Inhibition of rabbit muscle glycogen phosphorylase b

| Compound | Ki [µM] |
| --- | --- |
| O=C(NC(=O)c1ccc2ccccc2c1)N[C@@H]1O[C@H](CO)[C@@H](O)[C@H](O)[C@H]1O | 0.35 |
| COc1ccc(C2=NO[C@]3(O[C@H](CO)[C@@H](O)[C@H](O)[C@H]3O)S2)cc1 | 8 |
| O=C(NC1O[C@H](CO)[C@@H](O)[C@H](O)[C@H]1O)c1ccccc1 (single isomer, unassigned) | 81 |
| CC(=O)NC1O[C@H](CO)[C@@H](O)[C@H](O)[C@H]1O (single isomer, unassigned) | 32 |

Further lines, results first:

| Ki [µM] | Compound |
| --- | --- |
| 305 | CC(=O)NC(=O)N[C@@H]1O[C@H](CO)[C@@H](O)[C@H](O)[C@H]1O |
| 444 | O=C(N[C@@H]1O[C@H](CO)[C@@H](O)[C@H](O)[C@H]1O)c1cccc2ccccc12 |
| 28 | OC[C@H]1O[C@]2(ON=C(c3ccc(F)cc3)S2)[C@H](O)[C@@H](O)[C@@H]1O |
| 5 | O=C(NC(=O)c1cccc2ccccc12)N[C@@H]1O[C@H](CO)[C@@H](O)[C@H](O)[C@H]1O |
| 26 | OC[C@H]1O[C@]2(ON=C(c3ccccc3)S2)[C@H](O)[C@@H](O)[C@@H]1O |
